Experimental findings from patent US9395368B2, “Methods, agents and peptides for inducing an immune response to matrix metalloproteinase-2 expressing tumors” (New York University, priority 2010, dated 2016) are described below.

For this test, the system named is MMP-2-specific CD4+ T cell clones. Nature of the test: Epitope specificity of MMP-2-specific CD4+ T cell clones with individual peptides (ELISA). The test is classed as cell-based, human. As to conditions: individual peptides 2 μM; TNFα, IL-4 and IFNγ production. On the procedure:
(A) MMP-2-specific CD4^+ T cell clones were generated and characterized as described in Experimental Procedures. Clone HD9828/52 is shown as a representative example. Epitope specificities were assessed after overnight stimulation with individual peptides (2 μM). IFNγ, TNFα and IL-4 release was measured by ELISA. (B) All MMP-2-specific CD4^+ T cell clones were characterized by staining for CD4, CD8 and TCR Vβ chain expression. Clone HD9828/52 is shown as a representative example. (C) To establish HLA class-II isotype restriction, CD4^+ T cell clones were stimulated by corresponding peptides in the absence or presence of blocking mAb (10 μg/mL) for HLA-DP, HLA-DQ or HLA-DR and IFNγ release was measured by ELISA. (D) Purified CD4^+/CD25^− cells were stimulated for 12 days by autologous DCs incubated with MMP-2 protein (10 μM) and subsequently washed. MMP-2-specific CD4^+ T cells were detected by intracellular staining of IFNγ, TNFα and IL-4 after 6 hours of stimulation with MMP-2 peptide pool (2 μM). Numbers in the upper right quadrants are the percentages of each population.
All 19 MMP-2-specific CD4^+ T cell clones were characterized for epitope specificity by testing clone responses to every peptide separately. TCR Vβ expression was assessed by surface staining HLA class-II isotype restriction was determined by using blocking mAb to HLA-DP, -DQ and -DR. Results listed for the T cell clone HD9828/MC1/52 are shown in FIG. 1 and FIG. 11, and are highlighted in bold italics.
T Cell culture, stimulation and priming. Peripheral blood mononuclear cells (PBMCs) were purified from healthy donor-(HD) or cord blood donor-(CB) derived buffy coats (New York Blood Center) by Ficoll-Paque Plus (GE Healthcare) centrifugation. CD4^+/CD25^− cells were enriched (>90%) by magnetic cell sorting (Miltenyi Biotec) and primed/stimulated for 12-15 days either with irradiated (35Gy) autologous CD4^− cells or with autologous mature DCs in IMDM (GIBCO) supplemented with 1 mM HEPES (Life Technologies), 2 mM L-glutamine (Sigma), […] (Sigma) and 5% heat inactivated pooled human serum (PHS; Valley Biomedical) in the presence of rhIL-2 (10 UI/mL) and IL7 (5 ng/mL) (R&D Systems). Antigen presenting cells (CD4^− cells or DCs) were loaded either with peptides (2 μM) or with the MMP-2 protein (10 μg/mL) for 2 and 5 h, respectively. DCs were matured using the TLR3 agonist poly(I:C) at 5 μg/mL/10^6 DCs (Amersham). To generate T cell clones, we originally relied on our published methodology (Godefroy et al., 2006; Godefroy et al., 2007; the entire contents of each of which is incorporated herein by reference), involving enrichment of IFNγ-secreting cells upon short-term culture and peptide stimulation to generate MMP-2 responsive clones. Briefly, CD4^+ T cells were stimulated by CD4^− cells irradiated and pulsed with peptides for 12 days in the presence of rhIL-2 and rhIL-7. CD4^+ T cells were then restimulated with peptides for 3 hours before capturing IFNγ-secreting specific cells using a bispecific antibody coating T cells and capturing produced IFNγ. Positive cells were purified magnetically before being cloned. Although MMP-2-specific cells could be isolated, it was realized that IFNγ secretion was marginal compared to their secretion of IL-4 and TNFα. IFNγ-secreting cells in response to MMP-2 peptide pool were enriched by cytokine-guided magnetic cell sorting (Miltenyi Biotec) as described above and cloned the following day by limiting dilution in the presence of irradiated allogeneic PBMCs, 1 μg/mL phytohemagglutinin-L (Sigma) and 150 UI/mL rhIL-2. Tumor infiltrating lymphocytes (TILs) were provided by Pr. F. Jotereau and B. Dréno. They were obtained from tumor-invaded lymph nodes of melanoma patients (stage Mb) and expanded ex vivo. These patients received autologous TILs and IL-2 infusions in a clinical trial (Labarriere et al., 2002). […]
Turning to “MEALMARGALTGPLRALCLL (listed as Homo sapiens) [P1-20]”, the “recognition by CD4+ T cell clones” value is “recognized”. Then “VAPKTDKELAVQYLNTFYGC (listed as Homo sapiens) [P41-60]”, with “recognized”; and “VDLQGGGHSYFFKGAYYLKL (listed as Homo sapiens) [P621-640]”, with “recognized”. For the sequence “TGPLRALCLLGCLLSHAAAA (listed as Homo sapiens) [P11-30]”, the “recognition by CD4+ T cell clones” value was “recognized”.

In the case of “AFNWSKNKKTYIFAGDKFWR (listed as Homo sapiens) [P571-590]”, the “recognition by CD4+ T cell clones” value was “recognized”.

As for “FFKGAYYLKLENQSLKSVKF (listed as Homo sapiens) [P631-650]”, the “recognition by CD4+ T cell clones” value is reported as “recognized”. Turning to “GFPKLIADAWNAIPDNLDAV (listed as Homo sapiens) [P601-620]”, the “recognition by CD4+ T cell clones” value is “recognized”. Consider “GCLLSHAAAAPSPIIKFPGD (listed as Homo sapiens) [P21-40]”, for which the “recognition by CD4+ T cell clones” value is “recognized”. The same measure for “GYPKPLTSLGLPPDVQRVDA (listed as Homo sapiens) [P551-570]”: “recognized”. Then “RIHDGEADIMINFGRWEHGD (listed as Homo sapiens) [P161-180]”, with “recognized”; and “ESCTSAGRSDGKMWCATTAN (listed as Homo sapiens) [P361-380]”, with “recognized”.
